Experimental data: ChEMBL document CHEMBL1201862, “PubChem BioAssay data set” (2004)
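A five-concentration, 48-hour dose response in 96-well plates underlies each endpoint, interpolated linearly between surrounding concentrations. Abbreviation: GI50, concentration required for 50% inhibition of growth.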 Activity calls are given as the source filed them. Rule as the data show it: active = GI50 up to about 1.1 µM and inactive = higher.

How the values were obtained:
Test in all cases: NCI-60 cell line screen, 48 h
HCT-116 = system: HCT-116
NCI-H23 = system: NCI-H23
M14 = system: M14
NCI-H460 = system: NCI-H460
HCC 2998 = system: HCC 2998
TK-10 = system: TK-10
Malme-3M = system: Malme-3M
BT-549 = system: BT-549
OVCAR-8 = system: OVCAR-8
LOX IMVI = system: LOX IMVI
SK-MEL-28 = system: SK-MEL-28
786-0 = system: 786-0
MDA-N = system: MDA-N
A549 = system: A549
A498 = system: A498
OVCAR-4 = system: OVCAR-4
HT-29 = system: HT-29
MOLT-4 = system: MOLT-4
NCI-H522 = system: NCI-H522
U-251 = system: U-251

Measured: GI50

CCCCCCCCCCCCCCCCOP(=O)(O)OCC(NC(C)=O)C(=O)O (stereo not given)
inactive: HCT-116 36.4 µM | NCI-H23 33 µM | M14 > 100 µM | NCI-H460 39.1 µM | HCC 2998 > 100 µM | TK-10 23.7 µM | Malme-3M > 100 µM | BT-549 18.8 µM | OVCAR-8 > 100 µM | LOX IMVI > 100 µM | SK-MEL-28 > 100 µM | 786-0 73.3 µM | MDA-N 54.2 µM | A549 > 100 µM | A498 32.4 µM | OVCAR-4 25.9 µM | HT-29 > 100 µM | MOLT-4 24.2 µM | NCI-H522 5.64 µM | U-251 20 µM
